Laboratory results: ChEMBL document CHEMBL5352406 (Eur J Med Chem, 2022)

Experiments:
[1] = Selectivity index, ratio of IC50 for electric eel AChE to IC50 for CDK9/CyclinT1 (unknown origin)
MCF7 = assay: Antiproliferative activity against human MCF7 cells assessed as cell growth inhibition after 72 hrs by MTT assay; type: functional
SW480 = assay: Antiproliferative activity against human SW480 cells assessed as cell growth inhibition after 72 hrs by MTT assay; type: functional
[2] = Selectivity index, ratio of IC50 for equine serum BuChE to IC50 for CDK9/CyclinT1 (unknown origin)
Acetylcholinesterase = Acetylcholinesterase (Electrophorus electricus, UniProt O42275); assay: Inhibition of electric eel AChE using acetylthiocholine […] as substrate for 20 mins by Ellman's method
CDK2/Cyclin A2 = CDK2/Cyclin A2 (Homo sapiens, UniProt P24941); type: protein-complex assay
Description: Inhibition of human full length CDK2/CyclinA2 by ADP-Glo kinase assay

Cholinesterase = Cholinesterase (Equus caballus, UniProt P81908); assay: Inhibition of equine serum BuChE using […] as substrate for 20 mins by Ellman's method
CDK9/cyclin T1 = CDK9/cyclin T1 (Homo sapiens, UniProt P50750)
Description: Inhibition of CDK9/CyclinT1 (unknown origin) by ADP-Glo kinase assay

[3] = Selectivity index, ratio of IC50 for human full length CDK2/CyclinA to IC50 for CDK9/CyclinT1 (unknown origin)
A549 = assay: Antiproliferative activity against human A549 cells assessed as cell growth inhibition after 72 hrs by MTT assay; type: functional
HCT-116 = assay: Antiproliferative activity against human HCT-116 cells assessed as cell growth inhibition after 72 hrs by MTT assay; type: functional
[4] = molecular target: CDK2/Cyclin A2 (Homo sapiens) (UniProt P24941+P20248); assay: Inhibition of human full length CDK2/CyclinA2 at 500 nM by ADP-Glo kinase assay relative to control; type: protein-complex assay
[5] = molecular target: CDK9/cyclin T1 (Homo sapiens) (UniProt O60563+P50750); assay: Inhibition of CDK9/CyclinT1 (unknown origin) at 500 nM by ADP-Glo kinase assay relative to control; type: protein-complex assay

Sequence of CDK9/cyclin T1 (O60563 whole entry): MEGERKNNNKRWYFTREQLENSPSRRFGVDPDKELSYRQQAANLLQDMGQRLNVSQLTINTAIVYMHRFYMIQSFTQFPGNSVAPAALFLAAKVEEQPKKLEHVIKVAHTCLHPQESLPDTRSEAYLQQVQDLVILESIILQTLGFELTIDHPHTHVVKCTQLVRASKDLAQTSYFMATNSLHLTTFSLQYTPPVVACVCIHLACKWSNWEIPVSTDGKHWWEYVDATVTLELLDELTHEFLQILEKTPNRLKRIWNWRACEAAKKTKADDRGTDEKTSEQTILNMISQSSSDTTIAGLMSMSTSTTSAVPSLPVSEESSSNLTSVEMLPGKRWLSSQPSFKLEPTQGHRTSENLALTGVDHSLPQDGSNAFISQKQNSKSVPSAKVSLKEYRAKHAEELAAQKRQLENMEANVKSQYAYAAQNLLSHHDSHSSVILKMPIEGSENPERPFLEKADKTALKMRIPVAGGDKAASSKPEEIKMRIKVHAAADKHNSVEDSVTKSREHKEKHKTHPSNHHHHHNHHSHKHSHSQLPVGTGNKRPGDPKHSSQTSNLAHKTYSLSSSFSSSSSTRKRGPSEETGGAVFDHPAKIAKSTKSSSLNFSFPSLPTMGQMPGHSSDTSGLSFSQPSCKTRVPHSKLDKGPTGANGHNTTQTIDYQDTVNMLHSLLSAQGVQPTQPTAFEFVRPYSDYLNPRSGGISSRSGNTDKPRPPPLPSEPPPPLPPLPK
Sequence of CDK9/cyclin T1 (P50750 whole entry): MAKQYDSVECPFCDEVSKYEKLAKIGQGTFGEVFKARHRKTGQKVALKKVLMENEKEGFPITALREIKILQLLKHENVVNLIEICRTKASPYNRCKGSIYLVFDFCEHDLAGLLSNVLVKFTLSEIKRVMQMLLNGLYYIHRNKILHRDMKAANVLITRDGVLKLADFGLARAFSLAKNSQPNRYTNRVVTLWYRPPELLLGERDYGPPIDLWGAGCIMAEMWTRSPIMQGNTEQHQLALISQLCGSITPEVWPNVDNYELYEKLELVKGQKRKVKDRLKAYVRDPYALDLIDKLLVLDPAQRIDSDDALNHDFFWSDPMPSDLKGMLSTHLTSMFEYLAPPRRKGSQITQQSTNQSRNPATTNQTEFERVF
Sequence of Acetylcholinesterase (O42275 whole entry): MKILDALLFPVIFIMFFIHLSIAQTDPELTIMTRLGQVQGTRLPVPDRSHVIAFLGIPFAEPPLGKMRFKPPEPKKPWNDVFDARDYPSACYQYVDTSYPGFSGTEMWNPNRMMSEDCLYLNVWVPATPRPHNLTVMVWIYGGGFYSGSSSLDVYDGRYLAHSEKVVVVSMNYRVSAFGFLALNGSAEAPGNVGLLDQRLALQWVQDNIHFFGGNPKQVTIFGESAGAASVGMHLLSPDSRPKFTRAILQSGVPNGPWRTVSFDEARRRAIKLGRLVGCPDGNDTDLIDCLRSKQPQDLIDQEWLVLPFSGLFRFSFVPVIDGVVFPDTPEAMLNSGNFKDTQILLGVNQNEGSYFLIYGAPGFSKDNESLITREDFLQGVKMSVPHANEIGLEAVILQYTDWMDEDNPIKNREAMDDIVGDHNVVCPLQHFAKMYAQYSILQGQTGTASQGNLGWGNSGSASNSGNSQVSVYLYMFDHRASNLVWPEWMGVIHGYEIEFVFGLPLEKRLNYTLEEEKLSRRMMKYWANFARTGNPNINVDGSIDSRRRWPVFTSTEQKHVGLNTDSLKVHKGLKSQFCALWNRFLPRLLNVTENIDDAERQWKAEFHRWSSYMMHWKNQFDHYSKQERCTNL
Sequence of Cholinesterase (P81908 whole entry): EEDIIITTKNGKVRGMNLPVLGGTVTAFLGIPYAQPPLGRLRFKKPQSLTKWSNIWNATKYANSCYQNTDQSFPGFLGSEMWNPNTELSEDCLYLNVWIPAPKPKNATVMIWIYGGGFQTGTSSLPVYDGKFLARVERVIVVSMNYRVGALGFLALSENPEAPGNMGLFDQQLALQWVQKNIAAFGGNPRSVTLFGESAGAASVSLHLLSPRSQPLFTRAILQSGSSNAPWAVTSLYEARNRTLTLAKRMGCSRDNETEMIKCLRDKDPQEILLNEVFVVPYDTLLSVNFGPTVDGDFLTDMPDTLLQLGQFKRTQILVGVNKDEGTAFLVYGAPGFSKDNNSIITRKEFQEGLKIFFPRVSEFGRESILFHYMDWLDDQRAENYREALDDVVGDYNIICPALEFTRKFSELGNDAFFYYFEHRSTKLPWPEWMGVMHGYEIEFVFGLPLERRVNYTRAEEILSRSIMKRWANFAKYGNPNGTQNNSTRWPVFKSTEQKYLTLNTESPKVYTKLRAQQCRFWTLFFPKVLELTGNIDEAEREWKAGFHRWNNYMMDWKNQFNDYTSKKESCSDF

Structure (SMILES) | Selectivity Index [1] | GI50 (MCF7) | GI50 (SW480) | Selectivity Index [2] | IC50 (Acetylcholinesterase) | IC50 (CDK2/Cyclin A2) | IC50 (Cholinesterase) | IC50 (CDK9/cyclin T1) | Selectivity Index [3] | GI50 (A549) | GI50 (HCT-116) | inhibition [4] | inhibition [5]
N[C@H]1CCN(c2c3c(nc4ccc(-c5ccnc(NC(=O)C6CCC6)c5)cc24)CCCCCC3)C1 | 8920 | 108 nM | 118 nM | 235 | 26500 nM | 7.74 nM | 698 nM | 2.97 nM | 3 | 109 nM | 46 nM | – | –
CN1CCN(S(=O)(=O)c2ccc(Nc3cc(-c4ccc5nc6c(c(N7CC[C@H](N)C7)c5c4)CCCCC6)ccn3)cc2)CC1 | – | 2730 nM | 3220 nM | – | 24200 nM | – | 4380 nM | – | – | 3210 nM | 2000 nM | 85% | 57.2%
N[C@H]1CCN(c2c3c(nc4ccc(-c5cccnc5)cc24)CCCCC3)C1 | – | > 10000 nM | > 3000 nM | – | 13700 nM | > 500 nM | 722 nM | > 500 nM | – | > 10000 nM | > 10000 nM | – | –
N[C@H]1CCN(c2c3c(nc4ccc(-c5nccc(NC(=O)C6CC6)n5)cc24)CCCCC3)C1 | – | 8390 nM | > 3000 nM | – | 17600 nM | > 500 nM | 2510 nM | > 500 nM | – | > 10000 nM | > 3000 nM | – | –
N[C@H]1CCN(c2c3c(nc4ccc(-c5ccnc(NC(=O)C6CC6)c5)cc24)CCCC3)C1 | – | 109 nM | 328 nM | – | – | – | – | 2.23 nM | – | – | 29 nM | – | –
N[C@H]1CCN(c2c3c(nc4ccc(-c5ccncc5)cc24)CCCCC3)C1 | 2970 | 424 nM | 458 nM | 51 | 24800 nM | > 500 nM | 422 nM | 8.35 nM | – | 393 nM | 272 nM | – | –
N[C@H]1CCN(c2c3c(nc4ccc(-c5ccnc(C(=O)NC6CC6)c5)cc24)CCCCC3)C1 | – | 10400 nM | 9120 nM | – | 5570 nM | > 500 nM | 4990 nM | > 500 nM | – | > 10000 nM | 4740 nM | – | –
N[C@H]1CCN(c2c3c(nc4ccc(-c5ccnc(Nc6ccc(S(=O)(=O)N7CCCC7)cc6)c5)cc24)CCCCC3)C1 | – | 3240 nM | 3520 nM | – | > 50000 nM | – | 4960 nM | > 500 nM | – | 2690 nM | 6020 nM | 74.8% | –
CS(=O)(=O)c1ccc(Nc2cc(-c3ccc4nc5c(c(N6CC[C@H](N)C6)c4c3)CCCCC5)ccn2)cc1 | – | 3160 nM | 3520 nM | – | 24200 nM | – | 3050 nM | – | – | 2780 nM | 3010 nM | 90.1% | 80.2%
N[C@H]1CCN(c2c3c(nc4ccc(-c5ccnc(Nc6cccc(S(=O)(=O)N7CCOCC7)c6)c5)cc24)CCCCC3)C1 | – | 3440 nM | 3200 nM | – | 28500 nM | > 500 nM | 1980 nM | – | – | 3300 nM | 2000 nM | – | 57.5%
N[C@H]1CCN(c2c3c(nc4ccc(-c5ccnc(NC(=O)C6CC6)c5)cc24)-c2ccccc2CCC3)C1 | – | 2220 nM | 3050 nM | 28 | > 50000 nM | > 500 nM | 3340 nM | 111 nM | – | 1900 nM | 2670 nM | – | –
N[C@H]1CCN(c2c3c(nc4ccc(-c5ccnc(NC(=O)C6CCCCC6)c5)cc24)CCCCC3)C1 | 9550 | 404 nM | 1260 nM | 763 | 20800 nM | 59.5 nM | 1660 nM | 2.18 nM | 27 | 308 nM | 262 nM | – | –
N[C@H]1CCN(c2c3c(nc4ccc(-c5ccnc(NC(=O)C6CC6)n5)cc24)CCCCCC3)C1 | 7200 | 71 nM | 18 nM | 948 | 20700 nM | 18.7 nM | 2730 nM | 2.88 nM | 7 | 64 nM | 14 nM | – | –
CN(C)S(=O)(=O)c1ccc(Nc2cc(-c3ccc4nc5c(c(N6CC[C@H](N)C6)c4c3)CCCCC5)ccn2)cc1 | 346 | 3110 nM | 1810 nM | 10 | 35200 nM | > 500 nM | 1060 nM | 102 nM | 0.5 | 1990 nM | 2180 nM | – | –
N[C@H]1CCN(c2c3c(nc4ccc(-c5ccnc(NC(=O)C6CCC6)c5)cc24)CCCCC3)C1 | 4290 | 168 nM | 80 nM | 288 | 17600 nM | 10.7 nM | 1180 nM | 4.11 nM | 3 | 77 nM | 86 nM | – | –
N[C@H]1CCN(c2c3c(nc4ccc(-c5ccnc(Nc6ccc(S(=O)(=O)N7CCOCC7)cc6)c5)cc24)CCCCC3)C1 | – | 3180 nM | 3680 nM | – | 24900 nM | – | 1820 nM | – | – | 2610 nM | 2260 nM | 89.5% | 62.4%
N[C@H]1CCN(c2c3c(nc4ccc(-c5ccnc(F)c5)cc24)CCCCC3)C1 | – | 7080 nM | 4690 nM | – | 21400 nM | > 500 nM | 2250 nM | – | – | 8440 nM | 3980 nM | – | 73%
N[C@H]1CCN(c2c3c(nc4ccc(-c5ccnc(NC(=O)C6CC6)c5)cc24)CCC3)C1 | 671 | 203 nM | 251 nM | 1790 | 2250 nM | 252 nM | 6010 nM | 3.36 nM | 75 | 191 nM | 73 nM | – | –
N[C@H]1CCN(c2c3c(nc4ccc(-c5ccnc(NC(=O)C6CC6)c5)cc24)CCCCCC3)C1 | 9210 | 65 nM | 34 nM | – | 17200 nM | 2.92 nM | – | – | 2 | 52 nM | 14 nM | – | –
N[C@H]1CCN(c2c3c(nc4ccc(-c5ccnc(NC(=O)C6CC6)c5)cc24)CCCCC3)C1 | 14200 | 76 nM | 33 nM | 894 | 31100 nM | 5.51 nM | 1960 nM | 2.19 nM | 3 | 28 nM | 18 nM | – | –
N[C@H]1CCN(c2c3c(nc4ccc(-c5cc(NC(=O)C6CC6)ncn5)cc24)CCCCC3)C1 | 1250 | 161 nM | 316 nM | 669 | 7200 nM | 14.7 nM | 3850 nM | 5.75 nM | 3 | 166 nM | 201 nM | – | –
N[C@@H]1CCN(c2c3c(nc4ccc(-c5ccnc(NC(=O)C6CC6)c5)cc24)CCCCC3)C1 | – | 80 nM | 49 nM | 2560 | – | 6.46 nM | 4780 nM | – | 3 | 41 nM | 39 nM | – | –
N[C@H]1CCN(c2c3c(nc4ccc(-c5ccnc(NC(=O)C6CCCC6)c5)cc24)CCCCC3)C1 | 6180 | 210 nM | 65 nM | 425 | 17100 nM | 17.6 nM | 1180 nM | 2.77 nM | 6 | 83 nM | 134 nM | – | –
N[C@H]1CCN(c2c3c(nc4ccc(-c5ccnc(Nc6ccc(S(=O)(=O)N7CCNCC7)cc6)c5)cc24)CCCCC3)C1 | – | 11600 nM | 7800 nM | – | 19500 nM | – | 2820 nM | > 500 nM | – | 7530 nM | 5820 nM | 84% | –
N[C@H]1CCN(c2c3c(nc4ccc(-c5ccnc(NC(=O)C6CCC6)c5)cc24)CCC3)C1 | 275 | 333 nM | 456 nM | 497 | 1760 nM | 86 nM | 3180 nM | 6.39 nM | 13 | 195 nM | 138 nM | – | –
N[C@H]1CCN(c2c3c(nc4ccc(-c5ccccc5)cc24)CCCCC3)C1 | – | 4060 nM | 2930 nM | – | 19100 nM | > 500 nM | 133 nM | > 500 nM | – | 9530 nM | 5880 nM | – | –
N[C@H]1CCN(c2c3c(nc4ccc(-c5ccnc(NC(=O)C6CC6)n5)cc24)-c2ccccc2CCC3)C1 | – | 6330 nM | 9530 nM | – | > 50000 nM | > 500 nM | 12700 nM | – | – | 9470 nM | > 10000 nM | – | 72.7%
